The values that follow come from paper PMC4761420 (2015).

This assay relates to 5′-TAMRA-AM1A (RNA, riboswitch) GAGGGUGGAACCGCGCUUCGGCGUCCCUC
Nature of the assay: fluorescence titration. To be noted: 50 mM NaCl; 50 mM MOPS pH 6.5, 0.01 mM EDTA; 100 nM RNA; apparent.

In the case of `NCCCCNCCCN`, the Kd is 54 ± 12 µM.
